Assay results from PubChem BioAssay AID1259407 (Chemical Carcinogenesis Research Information System (CCRIS), 2018).
The source made the active and inactive calls. The rule behind the calls is not given here.

System: CCRIS mutagenicity, Ames/micronucleus/aberration tests
Assay: CCRIS mutagenicity studies

Measured: mutagenic call

O=P1(N(CCCl)CCCl)NCCCO1 (stereo unspecified)
inactive: End Point: In vivo micronucleus, Test System: Micronucleated hepatocytes, Species: Rat, Strain/Sex: F344/Male, Route: Oral inactive; negative | Test System: AMES SALMONELLA TYPHIMURIUM, Strain/Indicator: TA97, Metabolic Activation: NONE, Method: STANDARD PLATE inactive; negative | Test System: AMES SALMONELLA TYPHIMURIUM, Strain/Indicator: TA97, Metabolic Activation: RAT, LIVER, S-9, PHENOBARBITAL AND ALPHA-NAPHTHOFLAVONE, Method: STANDARD PLATE inactive; negative | Test System: AMES SALMONELLA TYPHIMURIUM, Strain/Indicator: TA98, Metabolic Activation: NONE, Method: PREINCUBATION inactive; negative | Test System: AMES SALMONELLA TYPHIMURIUM, Strain/Indicator: TA98, Metabolic Activation: NONE, Method: SPIRAL ASSAY inactive; negative | Test System: AMES SALMONELLA TYPHIMURIUM, Strain/Indicator: TA98, Metabolic Activation: NONE, Method: STANDARD PLATE inactive; negative | Test System: AMES SALMONELLA TYPHIMURIUM, Strain/Indicator: TA98, Metabolic Activation: RAT, LIVER, S-9, AROCLOR 1254, Method: SPIRAL ASSAY inactive; negative | Test System: AMES SALMONELLA TYPHIMURIUM, Strain/Indicator: TA98, Metabolic Activation: RAT, LIVER, S-9, PHENOBARBITAL AND ALPHA-NAPHTHOFLAVONE, Method: STANDARD PLATE inactive; negative | Test System: AMES SALMONELLA TYPHIMURIUM, Strain/Indicator: TA98, Metabolic Activation: S-9, Method: PREINCUBATION inactive; negative | Test System: AMES SALMONELLA TYPHIMURIUM, Strain/Indicator: TA98, Metabolic Activation: S-9, Method: STANDARD PLATE inactive; negative | Test System: AMES SALMONELLA TYPHIMURIUM, Strain/Indicator: TA100, Metabolic Activation: NONE, Method: PREINCUBATION inactive; negative | Test System: AMES SALMONELLA TYPHIMURIUM, Strain/Indicator: TA100, Metabolic Activation: RAT, LIVER, PARENCHYMAL CELLS (CRYOPRESERVED), Method: PREINCUBATION inactive; negative | Test System: AMES SALMONELLA TYPHIMURIUM, Strain/Indicator: TA1535, Metabolic Activation: RAT (PREGNANT FEMALE), LIVER, HEPATOCYTES, Method: STANDARD PLATE inactive; negative | Test System: AMES SALMONELLA TYPHIMURIUM, Strain/Indicator: TA1537, Metabolic Activation: NONE, Method: SPIRAL ASSAY inactive; negative | Test System: AMES SALMONELLA TYPHIMURIUM, Strain/Indicator: TA1537, Metabolic Activation: NONE, Method: STANDARD PLATE inactive; negative | Test System: AMES SALMONELLA TYPHIMURIUM, Strain/Indicator: TA1537, Metabolic Activation: RAT, LIVER, S-9, AROCLOR 1254, Method: SPIRAL ASSAY inactive; negative | Test System: AMES SALMONELLA TYPHIMURIUM, Strain/Indicator: TA1537, Metabolic Activation: S-9, Method: STANDARD PLATE inactive; negative | Test System: CHINESE HAMSTER V-79, Strain/Indicator: V-79/6-THIOGUANINE, Metabolic Activation: NONE, Method: SUSPENSION/PLATE inactive; negative | Test System: E. COLI, Strain/Indicator: WP2 UVRA, Metabolic Activation: HAMSTER, LIVER, S-9, AROCLOR 1254, Method: STANDARD PLATE inactive; negative | Test System: E. COLI, Strain/Indicator: WP2 UVRA, Metabolic Activation: HAMSTER, LIVER, S-9, Method: STANDARD PLATE inactive; negative | Test System: E. COLI, Strain/Indicator: WP2 UVRA, Metabolic Activation: MOUSE, LIVER, S-9, AROCLOR 1254, Method: STANDARD PLATE inactive; negative | Test System: E. COLI, Strain/Indicator: WP2 UVRA, Metabolic Activation: MOUSE, LIVER, S-9, Method: STANDARD PLATE inactive; negative | Test System: E. COLI, Strain/Indicator: WP2 UVRA, Metabolic Activation: NONE, Method: STANDARD PLATE inactive; negative | Test System: E. COLI, Strain/Indicator: WP2 UVRA, Metabolic Activation: RAT, LIVER, S-9, AROCLOR 1254, Method: STANDARD PLATE inactive; negative | Test System: E. COLI, Strain/Indicator: WP2 UVRA, Metabolic Activation: RAT, LIVER, S-9, Method: STANDARD PLATE inactive; negative
active: End Point: IN VITRO CHROMOSOMAL ABERRATIONS, Test System: CHL/IU CELLS, Metabolic Activation: RAT, LIVER, S-9, PHENOBARBITAL AND 5,6-BENZOFLAVONE active; positive (structural changes) | End Point: IN VITRO CHROMOSOMAL ABERRATIONS, Test System: HUMAN LYMPHOCYTES, Metabolic Activation: RAT LIVER S-9, AROCLOR 1254 active; positive | End Point: IN VITRO MICRONUCLEUS, Test System: BOVINE LYMPHOCYTES, Metabolic Activation: S-9 MIX, AROCLOR 1254 active; positive | End Point: IN VITRO MICRONUCLEUS, Test System: CHL/IU CELLS, Metabolic Activation: RAT, LIVER, S-9, PHENOBARBITAL AND 5,6-BENZOFLAVONE active; positive | End Point: IN VITRO MICRONUCLEUS, Test System: CHO CELLS, Metabolic Activation: RAT, LIVER, S-9, AROCLOR 1254 active; positive | End Point: IN VIVO MICRONUCLEUS, Test System: BLOOD ERYTHROCYTES, Species: MOUSE, Strain/Sex: CD-1/MALE, Route: ORAL active; positive | End Point: IN VIVO MICRONUCLEUS, Test System: BONE MARROW CELLS, Species: MOUSE, Strain/Sex: CD-1/MALE, Route: GAVAGE active; positive | End Point: IN VIVO MICRONUCLEUS, Test System: BONE MARROW ERYTHROCYTES, Species: HAMSTER, Strain/Sex: SYRIAN/MALE, Route: INTRAPERITONEAL active; positive | End Point: IN VIVO MICRONUCLEUS, Test System: BONE MARROW POLYCHROMATIC ERYTHROCYTES, Species: MOUSE, Strain/Sex: SWISS/MALE, Route: IP active; positive | End Point: In vivo chromosomal aberrations, Test System: Bone marrow cells, Species: Rat, Strain/Sex: Wistar/Male, Route: Intraperitoneal injection active; positive (structural changes: gaps, breaks). effect by 100 or 200 mg/kg alpha-li | End Point: In vivo micronucleus, Test System: Bone marrow erythrocytes, Species: Mouse, Strain/Sex: NMRI/Male, Route: Intraperitoneal active; positive (hawthorn extract significantly reduced micronucleated polychromatic er | End Point: In vivo micronucleus, Test System: Bone marrow erythrocytes, Species: Mouse, Strain/Sex: Swiss/Male, Route: Intraperitoneal active; positive (pue or 4-nc showed dose-dependent protective effect against cyclophosp | End Point: In vivo micronucleus, Test System: Peripheral blood and bone marrow erythrocytes, Species: Dog, Strain/Sex: Beagle/Male and female, Route: Intravenous active; positive. evaluations by flow cytometry and manual counting; multi-laboratory st | End Point: MICRONUCLEUS, Test System: BONE MARROW, Species: RAT, Strain/Sex: WISTAR, Route: INTRAPERITONEAL active; positive | Test System: AMES SALMONELLA TYPHIMURIUM, Strain/Indicator: TA100, Metabolic Activation: MOUSE, LIVER, S-9, PHENOBARBITAL AND BETA-NAPHTHOFLAVONE, Method: STANDARD PLATE active; positive | Test System: AMES SALMONELLA TYPHIMURIUM, Strain/Indicator: TA100, Metabolic Activation: MOUSE, LIVER, S-9, PHENOBARBITAL, BETA-NAPHTHOFLAVONE, ISOSAFROLE, ETHANOL, PREGNENOLONE AND 16ALPHA-CARBONITRILE, Method: STANDARD PLATE active; positive | Test System: AMES SALMONELLA TYPHIMURIUM, Strain/Indicator: TA100, Metabolic Activation: NONE, Method: SPIRAL ASSAY active; positive | Test System: AMES SALMONELLA TYPHIMURIUM, Strain/Indicator: TA100, Metabolic Activation: RAT, LIVER, PARENCHYMAL CELLS (FRESHLY ISOLATED OR STORED FOR 1 D), Method: PREINCUBATION active; positive | Test System: AMES SALMONELLA TYPHIMURIUM, Strain/Indicator: TA100, Metabolic Activation: RAT, LIVER, S-9, AROCLOR 1254, Method: SPIRAL ASSAY active; positive | Test System: AMES SALMONELLA TYPHIMURIUM, Strain/Indicator: TA100, Metabolic Activation: RAT, LIVER, S-9, AROCLOR 1254, Method: STANDARD PLATE active; positive | Test System: AMES SALMONELLA TYPHIMURIUM, Strain/Indicator: TA100, Metabolic Activation: RAT, LIVER, S-9, PHENOBARBITAL AND ALPHA-NAPHTHOFLAVONE, Method: STANDARD PLATE active; positive | Test System: AMES SALMONELLA TYPHIMURIUM, Strain/Indicator: TA100, Metabolic Activation: RAT,LIVER, HEPATOCYTES, PHENOBARBITAL, Method: PREINCUBATION active; positive | Test System: AMES SALMONELLA TYPHIMURIUM, Strain/Indicator: TA100, Metabolic Activation: S-9, Method: PREINCUBATION active; positive | Test System: AMES SALMONELLA TYPHIMURIUM, Strain/Indicator: TA100, Metabolic Activation: S-9, Method: STANDARD PLATE active; positive | Test System: AMES SALMONELLA TYPHIMURIUM, Strain/Indicator: TA1535, Metabolic Activation: NONE, Method: SPIRAL ASSAY active; positive | Test System: AMES SALMONELLA TYPHIMURIUM, Strain/Indicator: TA1535, Metabolic Activation: RAT (MALE), LIVER, HEPATOCYTES, AROCLOR 1254, Method: STANDARD PLATE active; positive | Test System: AMES SALMONELLA TYPHIMURIUM, Strain/Indicator: TA1535, Metabolic Activation: RAT (MALE), LIVER, HEPATOCYTES, Method: STANDARD PLATE active; positive | Test System: AMES SALMONELLA TYPHIMURIUM, Strain/Indicator: TA1535, Metabolic Activation: RAT (PREGNANT FEMALE), LIVER, HEPATOCYTES, AROCLOR 1254, Method: STANDARD PLATE active; positive | Test System: AMES SALMONELLA TYPHIMURIUM, Strain/Indicator: TA1535, Metabolic Activation: RAT, LIVER, HEPATOCYTES, PHENOBARBITAL, Method: PREINCUBATION active; positive | Test System: AMES SALMONELLA TYPHIMURIUM, Strain/Indicator: TA1535, Metabolic Activation: RAT, LIVER, S-9, AROCLOR 1254, Method: PREINCUBATION active; positive | Test System: AMES SALMONELLA TYPHIMURIUM, Strain/Indicator: TA1535, Metabolic Activation: RAT, LIVER, S-9, AROCLOR 1254, Method: SPIRAL ASSAY active; positive | Test System: AMES SALMONELLA TYPHIMURIUM, Strain/Indicator: TA1535, Metabolic Activation: RAT, LIVER, S-9, PHENOBARBITAL AND ALPHA-NAPHTHOFLAVONE, Method: STANDARD PLATE active; positive | Test System: AMES SALMONELLA TYPHIMURIUM, Strain/Indicator: TA1535, Metabolic Activation: RAT, LIVER, S-9, PHENOBARBITAL, Method: STANDARD PLATE active; positive | Test System: AMES SALMONELLA TYPHIMURIUM, Strain/Indicator: TA1535, Metabolic Activation: RAT, LIVER, S-9, Method: STANDARD PLATE active; positive | Test System: CHINESE HAMSTER V-79, Strain/Indicator: V-79/6-THIOGUANINE, Metabolic Activation: RAT, LIVER, HEPATOCYTES, Method: SUSPENSION/PLATE active; positive | Test System: E. COLI, Strain/Indicator: WP2 (HCR), Metabolic Activation: S-9, Method: STANDARD PLATE active; positive | Test System: E. COLI, Strain/Indicator: WP2, Metabolic Activation: NONE, Method: FLUCTUATION (MICROTITER) active; positive | Test System: E. COLI, Strain/Indicator: WP2 UVRA, Metabolic Activation: NONE, Method: FLUCTUATION (MICROTITER) active; positive | Test System: MOUSE LYMPHOMA, Strain/Indicator: L5178Y (TK+/TK-), Metabolic Activation: NONE, Method: SUSPENSION/PLATE active; positive | Test System: UDS RAT HEPATOCYTES, Strain/Indicator: THY INCORP, Metabolic Activation: NONE, Method: AUTORADIOGRAPHY active; positive | Test System: UDS RAT HEPATOCYTES, Strain/Indicator: THY INCORP, Metabolic Activation: NONE, Method: AUTORADIOGRAPHY (SERUM-FREE MEDIA) active; positive
